From US11713338B2, “Cyclic peptides multimers targeting α-4-β-7 integrin” (priority 2016, dated 2023)

Tests used:
[1] = biological target: T1, recombinant integrin α4β7 (Homo sapiens, UniProt P13612+P26010, DEL724-798); assay: Integrin α4β7—MAdCAM-1 ELISA competition assay; type: binding; conditions: read-out: ELISA α4β7 Assay IC50
T1 construct: purchased R&D Systems 5397-A3-050
T1 sequence (P13612 34-970 limits assumed): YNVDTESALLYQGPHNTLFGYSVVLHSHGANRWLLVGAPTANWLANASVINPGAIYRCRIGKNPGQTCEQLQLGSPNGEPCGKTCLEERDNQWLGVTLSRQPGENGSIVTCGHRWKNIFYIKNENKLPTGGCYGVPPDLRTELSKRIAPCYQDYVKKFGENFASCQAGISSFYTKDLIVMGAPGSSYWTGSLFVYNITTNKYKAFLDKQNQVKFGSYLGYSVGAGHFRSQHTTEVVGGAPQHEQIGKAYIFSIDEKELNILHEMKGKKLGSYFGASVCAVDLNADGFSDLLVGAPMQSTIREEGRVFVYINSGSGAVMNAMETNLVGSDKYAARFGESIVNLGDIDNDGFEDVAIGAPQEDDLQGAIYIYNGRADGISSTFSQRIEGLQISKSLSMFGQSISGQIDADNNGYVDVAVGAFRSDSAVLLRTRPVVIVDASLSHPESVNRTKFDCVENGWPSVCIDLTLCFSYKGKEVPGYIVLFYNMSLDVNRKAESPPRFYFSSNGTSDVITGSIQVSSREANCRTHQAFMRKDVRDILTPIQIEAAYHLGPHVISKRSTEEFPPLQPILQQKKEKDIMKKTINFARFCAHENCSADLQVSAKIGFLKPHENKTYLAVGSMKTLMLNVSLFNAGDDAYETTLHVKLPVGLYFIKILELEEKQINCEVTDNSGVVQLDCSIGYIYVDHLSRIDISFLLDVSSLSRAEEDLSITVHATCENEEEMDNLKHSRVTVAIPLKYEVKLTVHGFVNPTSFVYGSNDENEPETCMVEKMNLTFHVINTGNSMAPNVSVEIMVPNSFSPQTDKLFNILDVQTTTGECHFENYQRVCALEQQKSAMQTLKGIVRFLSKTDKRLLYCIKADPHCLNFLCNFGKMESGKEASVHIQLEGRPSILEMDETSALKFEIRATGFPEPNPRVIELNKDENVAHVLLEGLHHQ
T1 sequence (P26010 20-723 limits assumed): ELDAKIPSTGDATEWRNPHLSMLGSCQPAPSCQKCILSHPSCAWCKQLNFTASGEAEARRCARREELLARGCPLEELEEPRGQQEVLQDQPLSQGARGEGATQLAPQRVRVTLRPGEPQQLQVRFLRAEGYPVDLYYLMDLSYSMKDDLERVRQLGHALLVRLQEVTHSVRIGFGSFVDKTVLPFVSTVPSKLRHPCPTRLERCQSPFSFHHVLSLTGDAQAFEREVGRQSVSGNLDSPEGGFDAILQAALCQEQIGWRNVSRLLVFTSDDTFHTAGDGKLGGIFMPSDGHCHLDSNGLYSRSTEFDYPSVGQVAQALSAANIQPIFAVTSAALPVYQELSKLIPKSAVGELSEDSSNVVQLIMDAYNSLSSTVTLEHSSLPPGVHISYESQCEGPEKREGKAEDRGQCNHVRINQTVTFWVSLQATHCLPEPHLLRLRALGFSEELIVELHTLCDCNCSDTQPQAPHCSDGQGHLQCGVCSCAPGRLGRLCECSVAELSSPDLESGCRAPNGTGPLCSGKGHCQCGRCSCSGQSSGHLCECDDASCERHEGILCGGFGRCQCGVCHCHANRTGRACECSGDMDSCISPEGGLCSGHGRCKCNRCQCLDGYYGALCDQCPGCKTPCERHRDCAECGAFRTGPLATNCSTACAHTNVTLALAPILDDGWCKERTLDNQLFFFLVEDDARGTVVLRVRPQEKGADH

[2] = biological target: T2, integrin α4β1 (RAMOS human cells adhering to VCAM-1) (Homo sapiens, UniProt P05556+P13612); assay: Integrin α4β1-VCAM cell adhesion assay (RAMOS cells); type: cell-based; conditions: for IC50: Ramos cells adhering to VCAM, read-out: Ramos Adhesion α4β1/VCAM IC50; for Ratio Ramos/RPMI: ratio of cell adhesion IC50s, Ramos α4β1/VCAM over RPMI8866 α4β7/MAdCAM
T2 construct: Ramos cells, which express integrin α4β1; host or cells: RAMOS
Method: Integrin α4β1-VCAM Cell Adhesion Assay
The plate was incubated overnight at 4° C. and washed twice with 150 μl per well wash buffer (0.05% Tween 20 in PBS), blocked with 250 μl per well blocking buffer (1% non-fat dry milk in PBS), for 1 hour at room temperature. During blocking step, RAMOS cells were resuspended at 10 million cells/ml in PBS containing […] and incubated at 37° C. for 30 min in a 50 ml tube. […] The plate was emptied by inverting and blotting on paper towels and washed manually twice with PBS. […] To calculate the dose response, the fluorescence value of control wells not containing cells was subtracted from each test well.

T2 sequence (P13612 34-1032): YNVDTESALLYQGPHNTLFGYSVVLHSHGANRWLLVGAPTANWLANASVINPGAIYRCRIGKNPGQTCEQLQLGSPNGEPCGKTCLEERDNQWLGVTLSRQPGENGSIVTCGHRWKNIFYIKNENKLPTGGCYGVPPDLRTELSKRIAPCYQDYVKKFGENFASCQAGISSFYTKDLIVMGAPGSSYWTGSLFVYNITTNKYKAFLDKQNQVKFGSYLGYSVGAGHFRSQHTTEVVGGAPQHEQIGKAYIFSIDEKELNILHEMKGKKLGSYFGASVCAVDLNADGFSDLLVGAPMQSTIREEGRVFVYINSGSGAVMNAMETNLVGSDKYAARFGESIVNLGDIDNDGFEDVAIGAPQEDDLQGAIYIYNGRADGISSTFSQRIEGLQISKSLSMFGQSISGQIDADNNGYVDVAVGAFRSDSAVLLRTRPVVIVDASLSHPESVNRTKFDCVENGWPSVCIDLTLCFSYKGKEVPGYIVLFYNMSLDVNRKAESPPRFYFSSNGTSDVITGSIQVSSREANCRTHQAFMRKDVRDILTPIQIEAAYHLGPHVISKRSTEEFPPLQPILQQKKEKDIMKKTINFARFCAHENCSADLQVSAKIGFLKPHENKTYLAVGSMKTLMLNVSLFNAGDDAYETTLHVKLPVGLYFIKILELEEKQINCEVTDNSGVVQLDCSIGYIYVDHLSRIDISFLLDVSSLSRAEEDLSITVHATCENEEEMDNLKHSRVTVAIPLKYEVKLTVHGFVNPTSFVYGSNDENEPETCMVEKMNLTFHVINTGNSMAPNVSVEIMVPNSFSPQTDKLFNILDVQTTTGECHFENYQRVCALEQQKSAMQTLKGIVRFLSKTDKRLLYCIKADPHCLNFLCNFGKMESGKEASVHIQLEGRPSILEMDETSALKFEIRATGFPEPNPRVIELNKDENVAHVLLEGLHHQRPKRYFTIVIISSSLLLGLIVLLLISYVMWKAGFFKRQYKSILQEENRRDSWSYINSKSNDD
T2 sequence (P05556 21-798): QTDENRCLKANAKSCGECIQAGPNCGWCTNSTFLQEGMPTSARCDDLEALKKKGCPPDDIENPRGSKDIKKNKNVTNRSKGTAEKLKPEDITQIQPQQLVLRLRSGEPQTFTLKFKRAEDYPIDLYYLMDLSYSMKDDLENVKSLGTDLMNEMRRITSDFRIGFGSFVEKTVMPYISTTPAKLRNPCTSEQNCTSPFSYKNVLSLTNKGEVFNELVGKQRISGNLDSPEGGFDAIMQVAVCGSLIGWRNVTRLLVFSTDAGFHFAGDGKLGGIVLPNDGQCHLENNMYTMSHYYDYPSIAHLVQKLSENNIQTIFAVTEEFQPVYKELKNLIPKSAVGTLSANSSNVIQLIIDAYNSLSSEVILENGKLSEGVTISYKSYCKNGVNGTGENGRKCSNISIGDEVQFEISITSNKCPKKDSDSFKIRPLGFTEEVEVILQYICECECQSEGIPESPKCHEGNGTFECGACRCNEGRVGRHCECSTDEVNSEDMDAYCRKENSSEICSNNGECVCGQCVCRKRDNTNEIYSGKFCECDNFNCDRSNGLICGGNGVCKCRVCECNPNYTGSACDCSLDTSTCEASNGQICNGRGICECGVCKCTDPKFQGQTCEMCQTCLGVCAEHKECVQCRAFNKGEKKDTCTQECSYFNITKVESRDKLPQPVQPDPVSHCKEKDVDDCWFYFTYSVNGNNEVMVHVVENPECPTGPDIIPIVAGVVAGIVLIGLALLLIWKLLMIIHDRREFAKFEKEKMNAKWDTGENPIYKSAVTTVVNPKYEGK

CC(C)C[C@@H]1NC(=O)c2ccc(-c3ccc(N4CCN(C(=O)c5ccc(-c6cccc(C(=O)N7CCN(c8ccc(-c9ccc%10cc9CNC(=O)[C@@H]9CCCN9[C@H](C(=O)NC(C)(C)C)[C@H](C)NC(=O)[C@H]([C@@H](C)O)NC(=O)[C@H](CC(=O)O)NC(=O)[C@H](CC(C)C)NC%10=O)cc8)CC7)n6)nc5)CC4)cc3)c(c2)CNC(=O)[C@@H]2CCCN2[C@H](C(=O)NC(C)(C)C)[C@H](C)NC(=O)[C@H]([C@@H](C)O)NC(=O)[C@H](CC(=O)O)NC1=O [Compound 466]
IC50 [1]: 14 nM
IC50 [2]: 3240 nM
Ratio Ramos/RPMI [2]: 34

CC(C)C[C@@H]1NC(=O)c2ccc(-c3ccc(N4CCN(C(=O)c5nccnc5C(=O)N5CCN(c6ccc(-c7ccc8cc7CNC(=O)[C@@H]7CCCN7[C@H](C(=O)NC(C)(C)C)[C@H](C)NC(=O)[C@H]([C@@H](C)O)NC(=O)[C@H](CC(=O)O)NC(=O)[C@H](CC(C)C)NC8=O)cc6)CC5)CC4)cc3)c(c2)CNC(=O)[C@@H]2CCCN2[C@H](C(=O)NC(C)(C)C)[C@H](C)NC(=O)[C@H]([C@@H](C)O)NC(=O)[C@H](CC(=O)O)NC1=O [Compound 467]
IC50 [1]: 8.6 nM
IC50 [2]: 876 nM
Ratio Ramos/RPMI [2]: 20

CC(C)C[C@@H]1NC(=O)c2ccc(-c3ccc(N4CCN(c5ncc([N+](=O)[O-])c(N6CCN(c7ccc(-c8ccc9cc8CNC(=O)[C@@H]8CCCN8[C@H](C(=O)NC(C)(C)C)[C@H](C)NC(=O)[C@H]([C@@H](C)O)NC(=O)[C@H](CC(=O)O)NC(=O)[C@H](CC(C)C)NC9=O)cc7)CC6)n5)CC4)cc3)c(c2)CNC(=O)[C@@H]2CCCN2[C@H](C(=O)NC(C)(C)C)[C@H](C)NC(=O)[C@H]([C@@H](C)O)NC(=O)[C@H](CC(=O)O)NC1=O [Compound 468]
IC50 [1]: 32 nM
IC50 [2]: 677 nM
Ratio Ramos/RPMI [2]: 51

CC(C)C[C@@H]1NC(=O)c2ccc(-c3ccc(N4CCN(C(=O)c5cc(-c6ccccc6)c(C(=O)N6CCN(c7ccc(-c8ccc9cc8CNC(=O)[C@@H]8CCCN8[C@H](C(=O)NC(C)(C)C)[C@H](C)NC(=O)[C@H]([C@@H](C)O)NC(=O)[C@H](CC(=O)O)NC(=O)[C@H](CC(C)C)NC9=O)cc7)CC6)cc5-c5ccccc5)CC4)cc3)c(c2)CNC(=O)[C@@H]2CCCN2[C@H](C(=O)NC(C)(C)C)[C@H](C)NC(=O)[C@H]([C@@H](C)O)NC(=O)[C@H](CC(=O)O)NC1=O [Compound 469]
IC50 [1]: 36 nM
IC50 [2]: 44 nM

CC(C)C[C@@H]1NC(=O)c2ccc(-c3ccc(N4CCN(C(=O)c5ccc(C(=O)N6CCN(c7ccc(-c8ccc9cc8CNC(=O)[C@@H]8CCCN8[C@H](C(=O)NC(C)(C)C)[C@H](C)NC(=O)[C@H]([C@@H](C)O)NC(=O)[C@H](CC(=O)O)NC(=O)[C@H](CC(C)C)NC9=O)cc7)CC6)s5)CC4)cc3)c(c2)CNC(=O)[C@@H]2CCCN2[C@H](C(=O)NC(C)(C)C)[C@H](C)NC(=O)[C@H]([C@@H](C)O)NC(=O)[C@H](CC(=O)O)NC1=O [Compound 470]
IC50 [1]: 5.4 nM
IC50 [2]: 1110 nM
Ratio Ramos/RPMI [2]: 66

CC(C)C[C@@H]1NC(=O)c2ccc(-c3ccc(N4CCN(C(=O)c5ccc(-c6ccc(C(=O)N7CCN(c8ccc(-c9ccc%10cc9CNC(=O)[C@@H]9CCCN9[C@H](C(=O)NC(C)(C)C)[C@H](C)NC(=O)[C@H]([C@@H](C)O)NC(=O)[C@H](CC(=O)O)NC(=O)[C@H](CC(C)C)NC%10=O)cc8)CC7)cc6)cc5)CC4)cc3)c(c2)CNC(=O)[C@@H]2CCCN2[C@H](C(=O)NC(C)(C)C)[C@H](C)NC(=O)[C@H]([C@@H](C)O)NC(=O)[C@H](CC(=O)O)NC1=O [Compound 474]
IC50 [1]: 19 nM
IC50 [2]: 1300 nM
Ratio Ramos/RPMI [2]: 95

CC(C)C[C@@H]1NC(=O)c2ccc(-c3ccc(N4CCN(CC(=O)N5CCN(c6ccc(-c7ccc8cc7CNC(=O)[C@@H]7CCCN7[C@H](C(=O)NC(C)(C)C)[C@H](C)NC(=O)[C@H]([C@@H](C)O)NC(=O)[C@H](CC(=O)O)NC(=O)[C@H](CC(C)C)NC8=O)cc6)CC5)CC4)cc3)c(c2)CNC(=O)[C@@H]2CCCN2[C@H](C(=O)NC(C)(C)C)[C@H](C)NC(=O)[C@H]([C@@H](C)O)NC(=O)[C@H](CC(=O)O)NC1=O [Compound 481]
IC50 [1]: 7.1 nM
IC50 [2]: 940 nM
Ratio Ramos/RPMI [2]: 26

CC(C)C[C@@H]1NC(=O)c2ccc(-c3ccc(N4CCN(C(=O)C[C@@H](N)C(=O)N5CCN(c6ccc(-c7ccc8cc7CNC(=O)[C@@H]7CCCN7[C@H](C(=O)NC(C)(C)C)[C@H](C)NC(=O)[C@H]([C@@H](C)O)NC(=O)[C@H](CC(=O)O)NC(=O)[C@H](CC(C)C)NC8=O)cc6)CC5)CC4)cc3)c(c2)CNC(=O)[C@@H]2CCCN2[C@H](C(=O)NC(C)(C)C)[C@H](C)NC(=O)[C@H]([C@@H](C)O)NC(=O)[C@H](CC(=O)O)NC1=O [Compound 493]
IC50 [1]: 12 nM
IC50 [2]: 1250 nM
Ratio Ramos/RPMI [2]: 28

CC(C)C[C@@H]1NC(=O)c2ccc(-c3ccc(N4CCN(C(=O)CC[C@H](N)C(=O)N5CCN(c6ccc(-c7ccc8cc7CNC(=O)[C@@H]7CCCN7[C@H](C(=O)NC(C)(C)C)[C@H](C)NC(=O)[C@H]([C@@H](C)O)NC(=O)[C@H](CC(=O)O)NC(=O)[C@H](CC(C)C)NC8=O)cc6)CC5)CC4)cc3)c(c2)CNC(=O)[C@@H]2CCCN2[C@H](C(=O)NC(C)(C)C)[C@H](C)NC(=O)[C@H]([C@@H](C)O)NC(=O)[C@H](CC(=O)O)NC1=O [Compound 494]
IC50 [1]: 9.4 nM
IC50 [2]: 161 nM
Ratio Ramos/RPMI [2]: 3

CC(C)C[C@@H]1NC(=O)c2ccc(-c3ccc(N4CCN(C(=O)[C@H](CCCCNC(=O)CCCCCC(=O)NCCCC[C@H](NC(=O)OCc5ccccc5)C(=O)N5CCN(c6ccc(-c7ccc8cc7CNC(=O)[C@@H]7CCCN7[C@H](C(=O)NC(C)(C)C)[C@H](C)NC(=O)[C@H]([C@@H](C)O)NC(=O)[C@H](CC(=O)O)NC(=O)[C@H](CC(C)C)NC8=O)cc6)CC5)NC(=O)OCc5ccccc5)CC4)cc3)c(c2)CNC(=O)[C@@H]2CCCN2[C@H](C(=O)NC(C)(C)C)[C@H](C)NC(=O)[C@H]([C@@H](C)O)NC(=O)[C@H](CC(=O)O)NC1=O [Compound 498]
IC50 [1]: 12 nM
IC50 [2]: 1360 nM

CC(C)C[C@@H]1NC(=O)c2ccc(-c3ccc(N4CCN(Cc5cccc(CN6CCN(c7ccc(-c8ccc9cc8CNC(=O)[C@@H]8CCCN8[C@H](C(=O)NC(C)(C)C)[C@H](C)NC(=O)[C@H]([C@@H](C)O)NC(=O)[C@H](CC(=O)O)NC(=O)[C@H](CC(C)C)NC9=O)cc7)CC6)c5)CC4)cc3)c(c2)CNC(=O)[C@@H]2CCCN2[C@H](C(=O)NC(C)(C)C)[C@H](C)NC(=O)[C@H]([C@@H](C)O)NC(=O)[C@H](CC(=O)O)NC1=O [Compound 499]
IC50 [1]: 17 nM
IC50 [2]: 878 nM
Ratio Ramos/RPMI [2]: 21

CC(C)C[C@@H]1NC(=O)c2ccc(-c3ccc(N4CCN(Cc5ccc(CN6CCN(c7ccc(-c8ccc9cc8CNC(=O)[C@@H]8CCCN8[C@H](C(=O)NC(C)(C)C)[C@H](C)NC(=O)[C@H]([C@@H](C)O)NC(=O)[C@H](CC(=O)O)NC(=O)[C@H](CC(C)C)NC9=O)cc7)CC6)cc5)CC4)cc3)c(c2)CNC(=O)[C@@H]2CCCN2[C@H](C(=O)NC(C)(C)C)[C@H](C)NC(=O)[C@H]([C@@H](C)O)NC(=O)[C@H](CC(=O)O)NC1=O [Compound 500]
IC50 [1]: 12 nM
IC50 [2]: 1000 nM
Ratio Ramos/RPMI [2]: 31
